# Results from PubChem BioAssay (NCI).
#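 Exposure lasted 48 hours, with cells grown in 96-well plates and compounds tested at five concentrations. GI50 is the concentration that inhibits growth by half. The concentration for full growth arrest is given as TGI.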
# Tests used:
# Assay in all cases: inhibition of tumour cell growth, NCI panel, 48 h
# SF-295 CNS = test system: SF-295 CNS
# NCI-H23 lung = test system: NCI-H23 lung
# OVCAR-4 ovarian = test system: OVCAR-4 ovarian
# NCI-H460 lung = test system: NCI-H460 lung
# T-47D breast = test system: T-47D breast
# HOP-92 NSCLC = test system: HOP-92 NSCLC
# SK-MEL-2 melanoma = test system: SK-MEL-2 melanoma
# UO-31 renal = test system: UO-31 renal
# A549 NSCLC = test system: A549 NSCLC
# UACC-257 melanoma = test system: UACC-257 melanoma
# PC-3 prostate = test system: PC-3 prostate
# HT29 colon = test system: HT29 colon
# M14 melanoma = test system: M14 melanoma
# HOP-62 NSCLC = test system: HOP-62 NSCLC
# 786-0 renal = test system: 786-0 renal
# CCRF-CEM leukemia = test system: CCRF-CEM leukemia
# OVCAR-5 ovarian = test system: OVCAR-5 ovarian
# RPMI-8226 leukemia = test system: RPMI-8226 leukemia
# HCT-116 colon = test system: HCT-116 colon
# K-562 leukemia = test system: K-562 leukemia
# SNB-19 CNS = test system: SNB-19 CNS
# RXF 393 renal = test system: RXF 393 renal
# EKVX NSCLC = test system: EKVX NSCLC
# SF-539 CNS = test system: SF-539 CNS
# SN12C renal = test system: SN12C renal
# MDA-N = test system: MDA-N
# OVCAR-8 ovarian = test system: OVCAR-8 ovarian
# SNB-75 CNS = test system: SNB-75 CNS
# HS 578T breast = test system: HS 578T breast
# KM12 colon = test system: KM12 colon
# MCF7 breast = test system: MCF7 breast
# TK-10 renal = test system: TK-10 renal
# NCI-H522 lung = test system: NCI-H522 lung
# UACC-62 melanoma = test system: UACC-62 melanoma
# HL-60(TB) leukemia = test system: HL-60(TB) leukemia
# SK-MEL-28 melanoma = test system: SK-MEL-28 melanoma
# ACHN renal = test system: ACHN renal
# HCC-2998 colon = test system: HCC-2998 colon
# DU-145 prostate = test system: DU-145 prostate
# SK-OV-3 ovarian = test system: SK-OV-3 ovarian
# COLO 205 colon = test system: COLO 205 colon
# SW-620 colon = test system: SW-620 colon
# NCI/ADR-RES ovarian = test system: NCI/ADR-RES ovarian
# BT-549 breast = test system: BT-549 breast
# SF-268 CNS = test system: SF-268 CNS
# MALME-3M melanoma = test system: MALME-3M melanoma
# CAKI-1 renal = test system: CAKI-1 renal
# OVCAR-3 ovarian = test system: OVCAR-3 ovarian
# NCI-H226 lung = test system: NCI-H226 lung
# MOLT-4 leukemia = test system: MOLT-4 leukemia
# MDA-MB-435 = test system: MDA-MB-435
# SK-MEL-5 melanoma = test system: SK-MEL-5 melanoma
# A498 renal = test system: A498 renal
# HCT-15 colon = test system: HCT-15 colon
# IGROV1 ovarian = test system: IGROV1 ovarian
# MDA-MB-231 breast = test system: MDA-MB-231 breast
# LOX IMVI melanoma = test system: LOX IMVI melanoma
# SR leukemia = test system: SR leukemia
compound,measurement,setting,value
C[C@@H]1CCC2[C@@H](C)[C@@H](OC3CCC(O)CC3)OC3O[C@@]4(C)CCC1[C@]32OO4 (stereo partly specified),GI50,SF-295 CNS,45.8 µM
same,TGI,SF-295 CNS,> 100 µM
same,GI50,NCI-H23 lung,96.7 µM
same,TGI,NCI-H23 lung,> 100 µM
same,GI50,OVCAR-4 ovarian,46.4 µM
same,TGI,OVCAR-4 ovarian,> 100 µM
same,GI50,NCI-H460 lung,> 100 µM
same,TGI,NCI-H460 lung,> 100 µM
same,GI50,T-47D breast,19.9 µM
same,TGI,T-47D breast,> 100 µM
same,GI50,HOP-92 NSCLC,23.1 µM
same,TGI,HOP-92 NSCLC,> 100 µM
same,GI50,SK-MEL-2 melanoma,92.6 µM
same,TGI,SK-MEL-2 melanoma,> 100 µM
same,GI50,UO-31 renal,6.3 µM
same,TGI,UO-31 renal,> 100 µM
same,GI50,A549 NSCLC,67.1 µM
same,TGI,A549 NSCLC,> 100 µM
same,GI50,UACC-257 melanoma,> 100 µM
same,TGI,UACC-257 melanoma,> 100 µM
same,GI50,PC-3 prostate,23.9 µM
same,TGI,PC-3 prostate,> 100 µM
same,GI50,HT29 colon,97.4 µM
same,TGI,HT29 colon,> 100 µM
same,GI50,M14 melanoma,> 100 µM
same,TGI,M14 melanoma,> 100 µM
same,GI50,HOP-62 NSCLC,> 100 µM
same,TGI,HOP-62 NSCLC,> 100 µM
same,GI50,786-0 renal,> 100 µM
same,TGI,786-0 renal,> 100 µM
same,GI50,CCRF-CEM leukemia,37.8 µM
same,TGI,CCRF-CEM leukemia,> 100 µM
same,GI50,OVCAR-5 ovarian,82.4 µM
same,TGI,OVCAR-5 ovarian,> 100 µM
same,GI50,RPMI-8226 leukemia,7.04 µM
same,TGI,RPMI-8226 leukemia,> 100 µM
same,GI50,HCT-116 colon,71.2 µM
same,TGI,HCT-116 colon,> 100 µM
same,GI50,K-562 leukemia,26.8 µM
same,TGI,K-562 leukemia,> 100 µM
same,GI50,SNB-19 CNS,> 100 µM
same,TGI,SNB-19 CNS,> 100 µM
same,GI50,RXF 393 renal,> 100 µM
same,TGI,RXF 393 renal,> 100 µM
same,GI50,EKVX NSCLC,32.5 µM
same,TGI,EKVX NSCLC,> 100 µM
same,GI50,SF-539 CNS,> 100 µM
same,TGI,SF-539 CNS,> 100 µM
same,GI50,SN12C renal,> 100 µM
same,TGI,SN12C renal,> 100 µM
same,GI50,MDA-N,> 100 µM
same,TGI,MDA-N,> 100 µM
same,GI50,OVCAR-8 ovarian,16.1 µM
same,TGI,OVCAR-8 ovarian,> 100 µM
same,GI50,SNB-75 CNS,> 100 µM
same,TGI,SNB-75 CNS,> 100 µM
same,GI50,HS 578T breast,90.2 µM
same,TGI,HS 578T breast,> 100 µM
same,GI50,KM12 colon,51.6 µM
same,TGI,KM12 colon,> 100 µM
same,GI50,MCF7 breast,38.5 µM
same,TGI,MCF7 breast,> 100 µM
same,GI50,TK-10 renal,36.8 µM
same,TGI,TK-10 renal,> 100 µM
same,GI50,NCI-H522 lung,38.5 µM
same,TGI,NCI-H522 lung,> 100 µM
same,GI50,UACC-62 melanoma,72 µM
same,TGI,UACC-62 melanoma,> 100 µM
same,GI50,HL-60(TB) leukemia,4.35 µM
same,TGI,HL-60(TB) leukemia,> 100 µM
same,GI50,SK-MEL-28 melanoma,> 100 µM
same,TGI,SK-MEL-28 melanoma,> 100 µM
same,GI50,ACHN renal,67.2 µM
same,TGI,ACHN renal,> 100 µM
same,GI50,HCC-2998 colon,> 100 µM
same,TGI,HCC-2998 colon,> 100 µM
same,GI50,DU-145 prostate,> 100 µM
same,TGI,DU-145 prostate,> 100 µM
same,GI50,SK-OV-3 ovarian,> 100 µM
same,TGI,SK-OV-3 ovarian,> 100 µM
same,GI50,COLO 205 colon,8.83 µM
same,TGI,COLO 205 colon,32.7 µM
same,GI50,SW-620 colon,> 100 µM
same,TGI,SW-620 colon,> 100 µM
same,GI50,NCI/ADR-RES ovarian,39.9 µM
same,TGI,NCI/ADR-RES ovarian,> 100 µM
same,GI50,BT-549 breast,> 100 µM
same,TGI,BT-549 breast,> 100 µM
same,GI50,SF-268 CNS,76.5 µM
same,TGI,SF-268 CNS,> 100 µM
same,GI50,MALME-3M melanoma,> 100 µM
same,TGI,MALME-3M melanoma,> 100 µM
same,GI50,CAKI-1 renal,95.9 µM
same,TGI,CAKI-1 renal,> 100 µM
same,GI50,OVCAR-3 ovarian,66.7 µM
same,TGI,OVCAR-3 ovarian,> 100 µM
same,GI50,NCI-H226 lung,> 100 µM
same,TGI,NCI-H226 lung,> 100 µM
same,GI50,MOLT-4 leukemia,10.1 µM
same,TGI,MOLT-4 leukemia,> 100 µM
same,GI50,MDA-MB-435,> 100 µM
same,TGI,MDA-MB-435,> 100 µM
same,GI50,SK-MEL-5 melanoma,36.3 µM
same,TGI,SK-MEL-5 melanoma,> 100 µM
same,GI50,A498 renal,> 100 µM
same,TGI,A498 renal,> 100 µM
same,GI50,HCT-15 colon,3.61 µM
same,TGI,HCT-15 colon,> 100 µM
same,GI50,IGROV1 ovarian,> 100 µM
same,TGI,IGROV1 ovarian,> 100 µM
same,GI50,MDA-MB-231 breast,> 100 µM
same,TGI,MDA-MB-231 breast,> 100 µM
same,GI50,LOX IMVI melanoma,24.5 µM
same,TGI,LOX IMVI melanoma,> 100 µM
same,GI50,SR leukemia,7.84 µM
same,TGI,SR leukemia,> 100 µM
